Experiments:
PDE4B = target: T1, PDE4B (Homo sapiens, UniProt Q07343); test: Coupled PDE/AK bioluminescent assay of PDE inhibition; format: biochemical; settings: PDE4B catalytic domain
T1 construct: hex-histidine (His6) (N); made in house
Text: Phosphodiesterases regulate the activity of the second messenger cyclic adenosine monophosphate (cAMP) by hydrolyzing cAMP to adenosine monophosphate (AMP). We developed a novel coupled PDE/AK bioluminescent high-throughput assay to measure the activity of phosphodiesterases. In the PDE/AK assay, the AMP produced from the hydrolysis of cAMP by phosphodiesterase is converted to adenosine diphosphate (ADP) by the phosphotransferase activity of adenylate kinase (also known as ADK or myokinase). Adenylate kinase will catalyze the conversion of 1 mole of AMP and 1 mole of ATP into 2 moles of ADP. Thus the conversion of AMP to ADP will result in the subsequent loss of ATP. The decrease in ATP concentration can be monitored as light output using luciferase in a reaction that requires ATP to produce light. The PDE/AK assay uses luciferase, which catalyzes the production of light from ATP present in the reaction mix. The amount of emitted light is inversely proportional to the level of AMP present in the reaction. Test compounds are incubated with the phosphodiesterases and phosphodiesterase inhibitors will decrease the rate of cAMP hydrolysis and decrease the subsequent production of AMP. Thus phosphodiesterase inhibitors will decrease the conversion of ATP to ADP and result in the greatest emission of light.
Compounds may be screened for functional potency in in vitro biochemical assays for their ability to inhibit the activity of phosphodiesterase (PDE) enzymes. A novel coupled PDE/AK assay was utilized to measure the inhibitory activity of compounds on PDE isoforms. The catalytic domain of PDE4B was fused to an amino-terminus hex-histidine affinity tag and purified. PDE4B enzyme was incubated with compounds for 10 minutes. Cyclic AMP substrate, ATP and adenylate kinase were then added to the PDE enzyme mix and incubated for 45 minutes at room temperature. A commercial ATP detection assay, Perkin Elmer's easyLite ATP detection reagent, was then added to measure the relative amount of ATP present in the reaction. After […], the luminescent signal was quantitated with either the Perkin Elmer Viewlux or Molecular Devices Acquest or Analyst. Roflumilast and Rolipram are the positive controls used in the assay.

[1] = test system: Lacrimal Gland Inflammation-Induced Dry Eye in Rabbits; test: Lacrimal gland inflammation-induced dry eye in rabbits (corneal staining, tear breakup time); format: in vivo; settings: topical ocular BID; for Activity at Percent Concentration Tested 1 × 10^−2: 1 × 10^−2 percent concentration; for Activity at Percent Concentration Tested 1 × 10^−4: 1 × 10^−4 percent concentration; for Activity at Percent Concentration Tested 1 × 10^−6: 1 × 10^−6 percent concentration
Text: A more detailed description of the assay used herein may be found in Naglehout, T J et al. 2005, “Preservation of Tear Film Integrity and Inhibition of Corneal Injury by Dexamethasone in a Rabbit Model of Lacrimal Gland Inflammation-Induced Dry Eye,” J. Ocular Pharm. Ther., 21:2. 139-148, the disclosure of which is hereby incorporated by reference as if written herein in its entirety.
Rabbits (n=4/group) were randomized into treatment groups and dosed topically BID with maxidex vehicle or test drug beginning one day prior to initiation of dry eye. Each rabbit received bilateral lacrimal gland injections of saline or ConA (300 μg/30 μl) and topical ocular dosing was continued BID throughout the study.
Desiccation was initiated 1-2 hours following lacrimal gland injection by placing conscious rabbits in the environmental chamber (10-15% humidity/72° F.). Following 72 consecutive hours of exposure to this dry environment, the animals were anesthetized and sutures were placed in each upper and lower eyelid and lifted to form a corneal/conjunctival cup. Methylene blue dye (1 mL, 1% in dH2O) was added to the cup for three minutes and the excess removed by washing with 200 mL BSS®. The contralateral eye was then stained using the same procedure. Rabbits were euthanized immediately following the staining procedure and the eyes were excised. The corneas were isolated with a trephine and the 9.5-mm punch of the cornea was placed in 2 mL acetone/saturated sodium sulfate (7:3, vol./vol.). Absorbance of the extracted dye was determined at 660 nm.
TBUT was quantified in a separate group of treated animals. TBUT was determined by instilling 5 μL sodium fluorescein into the cul de sac and manually blinking the lids to distribute the fluorescein within the tear film. Under slit lamp observation, the eye was held open and the time whereby one or more black spots or streaks appeared in the precorneal tear film was recorded. The rabbits were euthanized 3 days following ConA injection.

T1 sequence (Q07343 330-659 limits assumed, species assumed): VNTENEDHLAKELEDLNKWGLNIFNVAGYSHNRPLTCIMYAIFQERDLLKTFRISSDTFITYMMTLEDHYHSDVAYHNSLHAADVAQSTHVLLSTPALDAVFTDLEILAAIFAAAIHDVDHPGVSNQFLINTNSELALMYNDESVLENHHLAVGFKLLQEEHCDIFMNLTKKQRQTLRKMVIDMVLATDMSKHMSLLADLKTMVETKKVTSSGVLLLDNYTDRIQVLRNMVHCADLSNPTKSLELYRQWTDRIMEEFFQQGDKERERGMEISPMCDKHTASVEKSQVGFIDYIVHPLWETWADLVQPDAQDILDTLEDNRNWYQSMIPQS

SMILES | IC50 (PDE4B) [µM] | other results
COc1ccc2c(Nc3c(Cl)cncc3Cl)cc(=O)[nH]c2c1OCCCCCC(=O)O [Example 11, 6-(4-(3,5-Dichloropyridin-4-ylamino)-7-methoxy-2-oxo-1,2-dihydroquinolin-8-yloxy)hexanoic acid] | ≤ 1 | 
COc1ccc2c(Oc3c(Cl)cncc3Cl)cc(=O)[nH]c2c1OC1CCCC1 [Example 2, 8-(Cyclopentyloxy)-4-(3,5-dichloropyridin-4-yloxy)-7-methoxyquinolin-2(1H)-one] | ≤ 1 | 
COc1ccc2c(Nc3c(Cl)cncc3Cl)cc(=O)n(C)c2c1OC1CCCC1 [Example 4, 8-(Cyclopentyloxy)-4-(3,5-dichloropyridin-4-ylamino)-7-methoxy-1-methylquinolin-2(1H)-one] | ≤ 1 | 
COc1ccc2c(Nc3c(Cl)cncc3Cl)cc(=O)[nH]c2c1OCC1CC1 [Example 3, 8-(Cyclopropylmethoxy)-4-(3,5-dichloropyridin-4-ylamino)-7-methoxyquinolin-2(1H)-one] | ≤ 1 | 
COc1ccc2c(Nc3c(C)cncc3C)cc(=O)[nH]c2c1OCC1CC1 [Example 8, 8-(Cyclopropylmethoxy)-4-(3,5-dimethylpyridin-4-ylamino)-7-methoxyquinolin-2(1H)-one] | ≤ 1 | Activity at Percent Concentration Tested 1 × 10^−2 [1]: Inactive; Activity at Percent Concentration Tested 1 × 10^−4 [1]: Inactive; Activity at Percent Concentration Tested 1 × 10^−6 [1]: Inactive
COc1ccc2c(Nc3c(Cl)cncc3Cl)cc(=O)n(CCN(C)C)c2c1OC1CCCC1 [Example 10, 8-(Cyclopentyloxy)-4-(3,5-dichloropyridin-4-ylamino)-1-(2-(dimethylamino)ethyl)-7-methoxyquinolin-2(1H)-one] | ≤ 1 | 
COc1ccc2c(Nc3c(Cl)cncc3Cl)c(Br)c(=O)n(Br)c2c1OC1CCCC1 [Example 6, 1,3-Dibromo-8-(cyclopentyloxy)-4-(3,5-dichloropyridin-4-ylamino)-7-methoxyquinolin-2(1H)-one] | ≤ 1 | 
COc1ccc2c(Nc3c(Cl)cncc3Cl)cc(=O)[nH]c2c1OCCCCCN(C)C [Example 14, 4-(3,5-Dichloropyridin-4-ylamino)-8-(5-(dimethylamino)pentyloxy)-7-methoxyquinolin-2(1H)-one] | ≤ 1 | 
COc1ccc2c(Nc3c(C)cncc3C)cc(=O)[nH]c2c1OCC(C)C [Example 12, 4-(3,5-Dimethylpyridin-4-ylamino)-8-isobutoxy-7-methoxyquinolin-2(1H)-one] | ≤ 1 | 
COc1ccc2c(Nc3c(Cl)cncc3Cl)cc(=O)[nH]c2c1OC1CCCC1 [Example 1, 8-(Cyclopentyloxy)-4-(3,5-dichloropyridin-4-ylamino)-7-methoxyquinolin-2(1H)-one] | ≤ 1 | Activity at Percent Concentration Tested 1 ([1]; 1 percent concentration): Inactive; Activity at Percent Concentration Tested 1 × 10^−1 ([1]; 1 × 10^−1 percent concentration): Inactive; Activity at Percent Concentration Tested 1 × 10^−2 [1]: Inactive
COc1ccc2c(Nc3c(Cl)cncc3Cl)c(Br)c(=O)[nH]c2c1OC1CCCC1 [Example 7, 3-Bromo-8-(cyclopentyloxy)-4-(3,5-dichloropyridin-4-ylamino)-7-methoxyquinolin-2(1H)-one] | ≤ 1 | 
COc1ccc2c(Nc3c(Cl)cncc3Cl)cc(=O)n(CCO)c2c1OC1CCCC1 [Example 9, 8-(Cyclopentyloxy)-4-(3,5-dichloropyridin-4-ylamino)-1-(2-hydroxyethyl)-7-methoxyquinolin-2(1H)-one] | ≤ 1 | 
COc1ccc2c(Nc3c(C)cncc3C)cc(=O)[nH]c2c1OC1CCCC1 [Example 5, 8-(Cyclopentyloxy)-4-(3,5-dimethylpyridin-4-ylamino)-7-methoxyquinolin-2(1H)-one] | ≤ 1 | Activity at Percent Concentration Tested 1 × 10^−2 [1]: Inactive; Activity at Percent Concentration Tested 1 × 10^−4 [1]: Inactive; Activity at Percent Concentration Tested 1 × 10^−6 [1]: Inactive
COc1ccc2c(Nc3c(Cl)cncc3Cl)cc(=O)[nH]c2c1OCCCCN(C)C [Example 13, 4-(3,5-Dichloropyridin-4-ylamino)-8-(4-(dimethylamino)butoxy) -7-methoxyquinolin-2(1H)-one] | ≤ 1 | 
